Laboratory results taken from the NIST ThermoML archive (doi:10.1016/j.jct.2012.04.007).

Columns and labels:
[1] = 101.33 kPa, Liquid, Vibrating tube method
[2] = xn = mol fraction of the nth substance listed; conditions: 101 kPa, Liquid, Vibrating tube method

CC(=O)N(C)C [N,N-dimethylethanamide]
[1]
Conditions | mass density [kg/m3]
278.15 K | 954.78
288.15 K | 945.591
298.15 K | 936.382
308.15 K | 927.142
318.15 K | 917.863

CN(C)C=O [dimethylformamide] + O
mass density [kg/m3], [2]
Conditions | 278.15 K | 288.15 K | 298.15 K | 308.15 K | 318.15 K
x2 = 0.0002028 | 962.91 | 953.41 | 943.88 | 934.31 | 924.69
x2 = 0.0008875 | 962.94 | 953.44 | 943.91 | 934.34 | 924.72
x2 = 0.001707 | 962.98 | 953.48 | 943.95 | 934.38 | 924.76
x2 = 0.002654 | 963.03 | 953.53 | 944 | 934.42 | 924.8
x2 = 0.003456 | 963.06 | 953.57 | 944.03 | 934.46 | 924.84
x2 = 0.00465 | 963.12 | 953.62 | 944.09 | 934.52 | 924.89
x2 = 0.006106 | 963.19 | 953.69 | 944.16 | 934.58 | 924.96
x2 = 0.007804 | 963.28 | 953.77 | 944.24 | 934.66 | 925.04
x2 = 0.009189 | 963.34 | 953.84 | 944.3 | 934.73 | 925.1
x2 = 0.01051 | 963.4 | 953.9 | 944.37 | 934.79 | 925.16
x2 = 0.01182 | 963.47 | 953.97 | 944.43 | 934.85 | 925.22

CN(C)C=O [dimethylformamide]
[1]
Conditions | mass density [kg/m3]
278.15 K | 962.901
288.15 K | 953.398
298.15 K | 943.869
308.15 K | 934.298
318.15 K | 924.683

[2H]O[2H] [water-d2] + CN(C)C=O
mass density [kg/m3], [2]
Conditions | 278.15 K | 288.15 K | 298.15 K | 308.15 K | 318.15 K
x1 = 0.0002028 | 962.92 | 953.41 | 943.88 | 934.31 | 924.7
x1 = 0.0009641 | 962.98 | 953.47 | 943.94 | 934.37 | 924.75
x1 = 0.00191 | 963.05 | 953.54 | 944.01 | 934.44 | 924.82
x1 = 0.002862 | 963.12 | 953.61 | 944.08 | 934.5 | 924.89
x1 = 0.003812 | 963.19 | 953.68 | 944.15 | 934.57 | 924.96
x1 = 0.004846 | 963.27 | 953.76 | 944.23 | 934.65 | 925.03
x1 = 0.005839 | 963.35 | 953.84 | 944.3 | 934.72 | 925.1
x1 = 0.006984 | 963.44 | 953.92 | 944.39 | 934.81 | 925.19
x1 = 0.008587 | 963.56 | 954.05 | 944.51 | 934.93 | 925.31
x1 = 0.01049 | 963.71 | 954.19 | 944.65 | 935.07 | 925.44
x1 = 0.012 | 963.83 | 954.31 | 944.77 | 935.18 | 925.55

CC(=O)N(C)C [N,N-dimethylethanamide] + O
mass density [kg/m3], [2]
Conditions | 278.15 K | 288.15 K | 298.15 K | 308.15 K | 318.15 K
x2 = 0.0002901 | 954.8 | 945.61 | 936.4 | 927.16 | 917.88
x2 = 0.001042 | 954.84 | 945.65 | 936.44 | 927.2 | 917.92
x2 = 0.001656 | 954.87 | 945.68 | 936.47 | 927.23 | 917.95
x2 = 0.002777 | 954.93 | 945.74 | 936.53 | 927.28 | 918
x2 = 0.003783 | 954.99 | 945.8 | 936.58 | 927.34 | 918.05
x2 = 0.004833 | 955.05 | 945.85 | 936.64 | 927.39 | 918.1
x2 = 0.005867 | 955.1 | 945.91 | 936.69 | 927.44 | 918.16
x2 = 0.007593 | 955.19 | 946 | 936.78 | 927.53 | 918.24
x2 = 0.008945 | 955.27 | 946.07 | 936.85 | 927.6 | 918.31
x2 = 0.01063 | 955.36 | 946.16 | 936.94 | 927.69 | 918.39
x2 = 0.01192 | 955.43 | 946.23 | 937.01 | 927.75 | 918.46

[2H]O[2H] [water-d2] + CC(=O)N(C)C
mass density [kg/m3], [2]
Conditions | 278.15 K | 288.15 K | 298.15 K | 308.15 K | 318.15 K
x1 = 0.0002901 | 954.8 | 945.61 | 936.4 | 927.16 | 917.88
x1 = 0.0009284 | 954.85 | 945.66 | 936.45 | 927.21 | 917.93
x1 = 0.00199 | 954.93 | 945.74 | 936.53 | 927.29 | 918
x1 = 0.002684 | 954.98 | 945.79 | 936.58 | 927.34 | 918.05
x1 = 0.003434 | 955.05 | 945.85 | 936.64 | 927.39 | 918.11
x1 = 0.004789 | 955.15 | 945.96 | 936.74 | 927.49 | 918.21
x1 = 0.005915 | 955.24 | 946.05 | 936.83 | 927.58 | 918.28
x1 = 0.007384 | 955.36 | 946.16 | 936.94 | 927.69 | 918.39
x1 = 0.008715 | 955.46 | 946.26 | 937.04 | 927.79 | 918.49
x1 = 0.01024 | 955.59 | 946.38 | 937.16 | 927.9 | 918.6
x1 = 0.01198 | 955.72 | 946.52 | 937.29 | 928.03 | 918.73
